Here are results for 13 molecules from patent US20040224884A1, “Methods of screening for apoptosis-controlling agents for bone anabolic therapies and uses thereof” (priority 1998, published 2004).

Data set [1] concerns osteoblastic cells derived from murine calvaria. Description: Etoposide-induced apoptosis of osteoblastic cells, trypan blue uptake. The format is cell-based. The settings on record: for Suppression by 10^−8 M Flutamide: suppression of the anti-apoptotic effect by androgen receptor antagonist; for Lowest Effective Concentration: inhibition of etoposide-induced osteoblast apoptosis, 1 hour pretreatment; for anti-apoptotic effect on osteoblastic cells after pretreatment with ICI182,780: test agent 10^−8 M, ICI182,780 10^−7 M, 1 h pretreatment. As to the method:
Osteoblastic cells derived from murine calvaria were pretreated with the sterols for 1 hour before the addition of the pro-apoptotic agent, etoposide. Apoptosis was determined after 6 hours by trypan blue uptake (Jilka et al, J. Bone and Min. Res. 13:793:802, 1998). * indicates p<0.05 versus etoposide alone, by analysis of variance (ANOVA) (Student-Newman-Keuls method).
Osteoblastic cells derived from murine calvaria were pretreated for 1 hour with the pure receptor antagonist ICI182,780 (10^−7 M) before the addition of the test agents (10^−8 M). Apoptosis was induced and quantified as described in FIG. 3. * indicates p<0.05 versus etoposide alone, by ANOVA (Student-Newman-Keuls method).
In this experiment, osteoblastic cells were derived from murine calvaria and were pretreated with the sterols for 1 hour before the addition of the pro-apoptotic agent, etoposide.
In these experiments, cells were pretreated with the indicated concentrations of the various compounds for 1 hour, in the absence or presence of the androgen receptor antagonist flutamide, before the addition of the proapoptotic agent etoposide. Apoptosis was determined after 6 hours by trypan blue uptake as described in FIG. 3.

Data set [2] has as its system extracellular signal regulated kinases (ERKs) 1 and 2. Description: Western blot of phosphorylated ERK1/2 in MLO-Y4 cells. The settings on record: for activation (phosphorylation) of ERKs: 10^−8 M, 5, 15 or 30 minutes; for ability to activate ERKs in the presence of PD98059: 10^−8 M, 5 minutes, 50 μM PD98059. In kind it is cell-based, murine. Here is the method:
(§1) MLO-Y4 osteocytic cells were incubated for 25 minutes in serum -free medium. […] Cell lysates were prepared and proteins were separated by electrophoresis in polyacrylamide gels and transferred to PVDF membranes. Western blotting was performed using a specific antibody recognizing phosphorylated ERKs 1 and 2, followed by reblotting with an antibody recognizing total ERKs. Blots were developed by enhanced chemiluminescence.
MLO-Y4 cells were incubated for 25 minutes in serum-free medium in the presence or absence of 50 μM PD98059. […] Cell lysates were prepared and proteins were separated by electrophoresis in polyacrylamide gels and transferred to PVDF membranes. Western blotting was performed using a specific antibody recognizing phosphorylated ERKs 1 and 2, followed by reblotting with an antibody recognizing total ERKs. Blots were developed by enhanced chemiluminescence.
as §1, with “In this experiment, MLO-Y4” for “MLO-Y4”, “serum-free” for “serum -free”, “extracellular signal regulated kinases” for “ERKs”, “extracellular signal regulated kinases.” for “ERKs.”, “chemiluminescence. […] This effect is too rapid to be accounted for by the classical mechanism of estrogen action.” for “chemiluminescence.”
In this experiment, MLO-Y4 osteocytic cells were incubated for 25 minutes in serum-free medium in the presence or absence of 50 μM PD98059. […] Cell lysates were prepared and proteins were separated by electrophoresis in polyacrylamide gels and transferred to PVDF membranes. Western blotting was performed using a specific antibody recognizing phosphorylated extracellular signal regulated kinases 1 and 2, followed by reblotting with an antibody recognizing total extracellular signal regulated kinases. Blots were developed by enhanced chemiluminescence.
A general note: A western blot detects proteins with antibodies after separation by electrophoresis.

Data set [3] deals with T1, murine estrogen receptor-beta (mERβ) (Mus musculus, UniProt O08537).
T1 construct: expressed in transfected cells
Description: Etoposide-induced apoptosis in HeLa cells stably transfected with mERβ. In kind it is cell-based, human. The settings on record: 10^−8 M, 1 h; etoposide 5×10^−5 M, 6 hour. The source says:
(§2) CMV promoter alone and CMV promoter-driven cDNA for mERα or mErβ were stably transfected into HeLa cells. […] Cells were trypsinized, pelleted and trypan blue positive cells enumerated.
(§3) In this experiment, instead of calvaria cells, human HeLa cells which contain undetectable, if any, estrogen receptor were used. HeLa cells were stably transfected with either a CMV promoter-driven cDNA for the murine estrogen receptor-alpha (mERα) or a CMV promoter-driven cDNA for the murine estrogen receptor-beta (mERβ). […] Cells were trypsinized, pelleted and trypan blue positive cells were enumerated.

Data set [4] deals with wild type HeLa cells. Kind of data set: Etoposide-induced apoptosis in wild type HeLa cells. In kind it is cell-based, human. The settings on record: 10^−8 M, 1 h; etoposide 5×10^−5 M, 6 hour.
Source text: as §2, §3

The subject of data set [5] is MLO-Y4 osteocytic cells. Description: Dexamethasone-induced apoptosis of MLO-Y4 cells with PD98059. The format is cell-based, murine. The note with it: 10^−8 M; PD98059 1 hour pretreatment; dexamethasone 6 hours. Here is the method: Apoptosis was induced by incubation with the pro-apoptotic agent dexamethasone for 6 hour and quantified as described in FIG. 3. * indicates p<0.05 versus the corresponding control group without dexamethasone, by ANOVA (Student-Newman-Keuls method).
That indeed the anti-apoptotic effect of all the compounds tested herein was mediated via activation of ERKs was established by the results of the experiments shown in FIG. 10. […] Apoptosis was induced by incubation with the pro-apoptotic agent dexamethasone for 6 hours and quantified as described in FIG. 3.

Data set [6] has as its system MLO-Y4 osteocytic cells. Description: Etoposide-induced apoptosis of MLO-Y4 osteocytic cells, trypan blue uptake. The format is cell-based, murine. The note with it: for antiapoptotic effect on osteocytes after pretreatment with ICI182,780: ICI182,780 10^−7 M, 1 h pretreatment; for inhibition of etoposide-induced apoptosis of osteocytic cell line: MLO-Y4, pretreated 1 h before etoposide, apoptosis after 6 h. Here is the method: Cells were pretreated with the indicated concentrations of the compounds for 1 hour before the addition of the pro-apoptotic agent etoposide. Apoptosis was determined after 6 hour by trypan blue uptake as described in FIG. 3. * indicates p<0.05 versus etoposide alone, by ANOVA (Student-Newman-Keuls method).
MLO-Y4 cells were pretreated for 1 hour with the pure receptor antagonist ICI182,780 (10^−7 M) before the addition of the test agents (10^−8 M). Apoptosis was induced and quantified as described in FIG. 3. * indicates p<0.05 versus etoposide alone, by ANOVA (Student-Newman-Keuls method).
In this experiment, MLO-Y4 cells were pretreated with the indicated concentrations of the various compounds for 1 h before the addition of the pro-apoptotic agent, etoposide. Apoptosis was determined after 6 h by trypan blue uptake as described in FIG. 3.

For data set [7], the system named is osteoclasts. The note with it: increased from approximately 0.5%; cited from earlier work.
The conditions of data set [8]: for at least four years; cited from earlier work.
The conditions of data set [9]: after one year of treatment; cited from earlier work.
The conditions of data set [10]: rats, intravenously; cited from earlier work.
In data set [11] the test system is osteoblasts. The settings on record: intermittent administration in mice; from 1.7-2.2%; cited from earlier work.

T1 sequence (O08537 whole entry): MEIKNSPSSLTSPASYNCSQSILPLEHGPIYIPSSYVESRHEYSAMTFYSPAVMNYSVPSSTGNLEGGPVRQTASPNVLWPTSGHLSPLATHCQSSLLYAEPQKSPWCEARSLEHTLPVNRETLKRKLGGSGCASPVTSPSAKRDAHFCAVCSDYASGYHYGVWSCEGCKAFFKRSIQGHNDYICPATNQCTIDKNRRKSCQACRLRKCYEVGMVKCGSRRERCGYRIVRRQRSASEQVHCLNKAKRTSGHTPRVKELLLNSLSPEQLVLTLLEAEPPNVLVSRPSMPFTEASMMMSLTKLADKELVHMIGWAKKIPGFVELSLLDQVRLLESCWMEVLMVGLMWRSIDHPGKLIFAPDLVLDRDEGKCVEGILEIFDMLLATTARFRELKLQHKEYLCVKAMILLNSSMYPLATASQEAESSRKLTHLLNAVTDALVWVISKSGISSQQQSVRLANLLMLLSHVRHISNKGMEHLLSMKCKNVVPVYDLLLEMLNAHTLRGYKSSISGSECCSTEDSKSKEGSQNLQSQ

In the case of `C[C@]12CCC(=O)C=C1CC[C@@H]1[C@@H]2CC[C@]2(C)C(=O)CC[C@@H]12` [4-androstene-3,17-dione], the “Suppression by 10^−8 M Flutamide” value in data set [1] is recorded as “yes”.
Consider `C[C@]12CC[C@H]3[C@@H](CC=C4C[C@@H](O)CC[C@@]43C)[C@@H]1CC[C@@H]2O` [5-androstene-3β-17_-diol], for which, in data set [1], the “Lowest Effective Concentration” value is given as 10^−8 M and the “Suppression by 10^−8 M Flutamide” value was “yes”.
For `C[C@]12CC[C@H](OS(=O)(=O)O)CC1=CC[C@@H]1[C@@H]2CC[C@]2(C)C(=O)CC[C@@H]12` [Dehydroisoandrosterone-3-sulfate (DHES), Dehydroisoandrosterone-3-sulfate], in data set [1], the “Lowest Effective Concentration” value is 10^−8 M and the “Suppression by 10^−8 M Flutamide” value is given as “no*”.
Turning to `C[C@]12CCC(=O)C[C@@H]1CC[C@@H]1[C@@H]2CC[C@]2(C)[C@@H](O)CC[C@@H]12` [5-α-dihydrotestosterone], in data set [1], the “Lowest Effective Concentration” value is given as 10^−9 M and the “Suppression by 10^−8 M Flutamide” value is “yes”.
Turning to `C[C@]12CC[C@H]3[C@@H](CCC4=CC(=O)CC[C@@]43C)[C@@H]1CC[C@@H]2O` [Testosterone], the “Suppression by 10^−8 M Flutamide” value in [1] was “yes”.
Turning to `C[C@]12CC[C@@H]3c4ccc(O)cc4CC[C@H]3[C@@H]1CC[C@@H]2O` [17β-estradiol], in data set [2], the “activation (phosphorylation) of ERKs” value is recorded as “activated” and the “ability to activate ERKs in the presence of PD98059” value is “abrogated”. In data set [3], the “inhibition of etoposide-induced apoptosis in HeLa cells transfected with estrogen receptor β” value is “potently inhibited”. Moreover, the “effect on etoposide-induced apoptosis of wild type HeLa cells” value in data set [4] is reported as “none of the three compounds had any effect”. In addition, the “anti-apoptotic effect after pretreatment with PD98059” value in data set [5] is “prevented the anti-apoptotic effect”. Also, in data set [1] (pretreated 1 hour before etoposide, apoptosis after 6 hours by trypan blue uptake), the “inhibition of etoposide-induced osteoblastic cell apoptosis” value is reported as “prevented apoptosis”. The “anti-apoptotic effect on osteoblastic cells after pretreatment with ICI182,780” value in data set [1] is “abrogated”. In [6], the “antiapoptotic effect on osteocytes after pretreatment with ICI182,780” value was “abrogated” and the “inhibition of etoposide-induced apoptosis of osteocytic cell line” value is on record as “dose-dependently inhibited”. In [7], the apoptosis of osteoclasts is at most 2.7%.
As to `C[C@]1(O)CC[C@H]2[C@@H]3CCC4=CC(=O)CCC4=C3C=C[C@@]21C` [RU1881], in data set [1], the “Lowest Effective Concentration” value is 10^−8 M and the “Suppression by 10^−8 M Flutamide” value is on record as “yes”.
With `[F-].[Na+]` [sodium fluoride], the “increase in vertebral bone mass” value in [8] is 10 % a year.
Take `C[C@]12CCC(=O)C[C@@H]1CC[C@@H]1[C@@H]2CC[C@]2(C)[C@@H](O)CC[C@@H]12` [5-β-dihydrotestosterone]: in data set [1], the “Lowest Effective Concentration” value is reported as 10^−10 M and the “Suppression by 10^−8 M Flutamide” value is on record as “yes”.
`CC(O)(P(=O)(O)O)P(=O)(O)O` [etidronate]: in data set [9], the “reduction of resorption depth in human iliac trabecular bone” value is reported as about 30%.
As to `CC(=O)N[C@@H](CS)C(=O)O` [N-acetylcysteine, acetamido-mercaptopropionic acid], the LD50 (in general, the dose expected to kill half of the subjects tested) in [10] was 1140 mg/kg.
In the case of `C[C@]12CC[C@@H]3c4ccc(O)cc4CC[C@H]3[C@@H]1CC[C@H]2O` [17α-estradiol], in data set [2], the “activation (phosphorylation) of ERKs” value is “activated” and the “ability to activate ERKs in the presence of PD98059” value was “abrogated”. Besides, the “inhibition of etoposide-induced apoptosis in HeLa cells transfected with estrogen receptor β” value in data set [3] is “potently inhibited”. Moreover, the “effect on etoposide-induced apoptosis of wild type HeLa cells” value in [4] is on record as “none of the three compounds had any effect”. In addition, the “anti-apoptotic effect after pretreatment with PD98059” value in data set [5] is reported as “prevented the anti-apoptotic effect”. Further, in data set [1], the “anti-apoptotic effect on osteoblastic cells after pretreatment with ICI182,780” value is recorded as “abrogated”. Further, in data set [6], the “antiapoptotic effect on osteocytes after pretreatment with ICI182,780” value is “abrogated” and the “inhibition of etoposide-induced apoptosis of osteocytic cell line” value is “dose-dependently inhibited”.

B1: PTH: parathyroid hormone, agent known for its role in calcium homeostasis (protein, UniProt P01270 32-115, looked up)
Parathyroid hormone: SVSEIQLMHNLGKHLNSMERVEWLRKKLQDVHNFVALGAPLAPRDAGSQRPRKKEDNVLVESHEKSLGEADKADVNVLTKAKSQ
modifications: Parathyroid hormone
notes: parathyroid hormone, agent known for its role in calcium homeostasis
Regarding B1, in [11], the “prevalence of osteoblast apoptosis” value was 0.1-0.4%.
